Measurements published in ChEMBL document CHEMBL1909294, “Translating clinical findings into knowledge in drug safety evaluation--drug induced liver injury prediction system (DILIps)” (PLoS Comput Biol, 2011).

Legend:
Hepatotoxicity [1] = system: Hepatotoxicity
Description: Drug Induced Liver Injury Prediction System (DILIps) validation dataset; compound DILI positive/negative as observed in O'Brien data

Hepatotoxicity [2] = system: Hepatotoxicity; remark: listed apart in the source
Description: Drug Induced Liver Injury Prediction System (DILIps) validation dataset; compound DILI positive/negative as observed in Pfizer data

Hepatotoxicity [3] = system: Hepatotoxicity; remark: listed apart in the source
Description: Drug Induced Liver Injury Prediction System (DILIps) validation dataset; compound DILI positive/negative as observed in LTKB-BD

Compound: CC[C@]1(O)CC[C@H]2[C@@H]3CCC4=CCCC[C@@H]4[C@H]3CC[C@@]21C
- DILI positive/negative (Hepatotoxicity [1]): 1

Compound: CN(C)CCN(Cc1cccs1)c1ccccn1
- DILI positive/negative (Hepatotoxicity [1]): 1
- DILI positive/negative (Hepatotoxicity [2]): 1

Compound: CCN(CC)Cc1cc(Nc2ccnc3cc(Cl)ccc23)ccc1O.Cl
- DILI positive/negative (Hepatotoxicity [1]; Liver): 1

Compound: O=C(O)COc1ccc(C(=O)c2cccs2)c(Cl)c1Cl
- DILI positive/negative (Hepatotoxicity [2]): 1
- DILI positive/negative (Hepatotoxicity [3]): 1

Compound: CC(=O)Nc1ccc(O)cc1 [ACETAMINOPHEN]
- DILI positive/negative (Hepatotoxicity [1]): 1
- DILI positive/negative (Hepatotoxicity [2]): 1

Compound: CCCN(CCC)C(=O)Cc1c(-c2ccc(Cl)cc2)nc2ccc(Cl)cn12 [ALPIDEM]
- DILI positive/negative (Hepatotoxicity [2]): 1
- DILI positive/negative (Hepatotoxicity [3]): 1

Compound: Nc1ccc(C(=O)O)c(O)c1 [AMINOSALICYLIC ACID]
- DILI positive/negative (Hepatotoxicity [1]): 1
- DILI positive/negative (Hepatotoxicity [2]): 1
- DILI positive/negative (Hepatotoxicity [3]): 1

Compound: CN(C)C(=O)Oc1cc(OC(=O)N(C)C)cc(C(O)CNC(C)(C)C)c1 (configuration not stated) [BAMBUTEROL]
- DILI positive/negative (Hepatotoxicity [1]): 0
- DILI positive/negative (Hepatotoxicity [2]): 0

Compound: CC(C(=O)O)c1ccc2oc(-c3ccc(Cl)cc3)nc2c1 (configuration not stated) [BENOXAPROFEN]
- DILI positive/negative (Hepatotoxicity [2]): 1
- DILI positive/negative (Hepatotoxicity [3]): 1

Compound: CCc1oc2ccccc2c1C(=O)c1cc(Br)c(O)c(Br)c1 [BENZBROMARONE]
- DILI positive/negative (Hepatotoxicity [2]): 1
- DILI positive/negative (Hepatotoxicity [3]): 1

Compound: O=C(O)CCCC[C@@H]1SC[C@@H]2NC(=O)N[C@@H]21 [BIOTIN]
- DILI positive/negative (Hepatotoxicity [1]): 0
- DILI positive/negative (Hepatotoxicity [2]): 0

Compound: CC(=O)Oc1ccc(C(c2ccc(OC(C)=O)cc2)c2ccccn2)cc1 [BISACODYL]
- DILI positive/negative (Hepatotoxicity [1]): 0

Compound: Nc1c(CC(=O)O)cccc1C(=O)c1ccc(Br)cc1 [BROMFENAC]
- DILI positive/negative (Hepatotoxicity [2]): 1
- DILI positive/negative (Hepatotoxicity [3]): 1

Compound: C[C@@](Cc1ccc(O)c(O)c1)(NN)C(=O)O.O [CARBIDOPA]
- DILI positive/negative (Hepatotoxicity [1]): 0
- DILI positive/negative (Hepatotoxicity [2]): 0
- DILI positive/negative (Hepatotoxicity [3]): 1

Compound: O=C(O)c1cc(-c2ccccc2)nc2ccccc12 [CINCHOPHEN]
- DILI positive/negative (Hepatotoxicity [2]): 1
- DILI positive/negative (Hepatotoxicity [3]): 1

Compound: CC(C)(Oc1ccc(C2CC2(Cl)Cl)cc1)C(=O)O (configuration not stated) [CIPROFIBRATE]
- DILI positive/negative (Hepatotoxicity [1]): 1
- DILI positive/negative (Hepatotoxicity [2]): 1

Compound: C[N+](C)(C)CCOP(=O)(O)OP(=O)([O-])OC[C@H]1O[C@@H](n2ccc(N)nc2=O)[C@H](O)[C@@H]1O [CITICOLINE]
- DILI positive/negative (Hepatotoxicity [1]): 0
- DILI positive/negative (Hepatotoxicity [2]): 0

Compound: CCOC(=O)C(C)(C)Oc1ccc(Cl)cc1 [CLOFIBRATE]
- DILI positive/negative (Hepatotoxicity [1]): 1
- DILI positive/negative (Hepatotoxicity [2]): 1

Compound: COc1cc2c(c(OC)c1OC)-c1ccc(OC)c(=O)cc1[C@@H](NC(C)=O)CC2 [COLCHICINE]
- DILI positive/negative (Hepatotoxicity [1]): 1

Compound: CCN(CC)C(=O)N1CCN(C)CC1 [DIETHYLCARBAMAZINE]
- DILI positive/negative (Hepatotoxicity [1]): 1
- DILI positive/negative (Hepatotoxicity [2]): 1

Compound: C[S+](C)[O-] [DIMETHYL SULFOXIDE]
- DILI positive/negative (Hepatotoxicity [1]): 0

Compound: NC(=O)OCC(COC(N)=O)c1ccccc1 [FELBAMATE]
- DILI positive/negative (Hepatotoxicity [1]): 1
- DILI positive/negative (Hepatotoxicity [2]): 1
- DILI positive/negative (Hepatotoxicity [3]): 1

Compound: O=c1[nH]c(=O)n([C@@H]2O[C@H](CO)[C@@H](O)[C@@H]2F)cc1I [FIALURIDINE]
- DILI positive/negative (Hepatotoxicity [1]): 1
- DILI positive/negative (Hepatotoxicity [2]): 1
- DILI positive/negative (Hepatotoxicity [3]): 1

Compound: O=C(COc1ccc(Cl)cc1)N1CCN(Cc2ccc3c(c2)OCO3)CC1 [FIPEXIDE]
- DILI positive/negative (Hepatotoxicity [2]): 1
- DILI positive/negative (Hepatotoxicity [3]): 1

Compound: O=C1OCCN1/N=C/c1ccc([N+](=O)[O-])o1 [FURAZOLIDONE]
- DILI positive/negative (Hepatotoxicity [1]): 1
- DILI positive/negative (Hepatotoxicity [2]): 1

Compound: CC(=O)O[C@H]1C[C@@]2(C)[C@@H](C[C@@H](O)[C@H]3[C@@]4(C)CC[C@@H](O)[C@@H](C)[C@@H]4CC[C@@]32C)/C1=C(\CCC=C(C)C)C(=O)O [FUSIDIC ACID]
- DILI positive/negative (Hepatotoxicity [1]): 1

Compound: O=C(OCC(O)CO)c1ccccc1Nc1ccnc2cc(Cl)ccc12 (configuration not stated) [GLAFENINE]
- DILI positive/negative (Hepatotoxicity [2]; Liver): 1
- DILI positive/negative (Hepatotoxicity [3]; Liver): 1

Compound: CC(C)Cc1ccc(CC(=O)O)cc1 [IBUFENAC]
- DILI positive/negative (Hepatotoxicity [2]): 1
- DILI positive/negative (Hepatotoxicity [3]): 1

Compound: O[C@H]1[C@H](O)[C@@H](O)[C@H](O)[C@@H](O)[C@H]1O [INOSITOL]
- DILI positive/negative (Hepatotoxicity [1]): 0
- DILI positive/negative (Hepatotoxicity [2]): 0

Compound: CC(C)NNC(=O)c1ccncc1 [IPRONIAZID]
- DILI positive/negative (Hepatotoxicity [2]): 1
- DILI positive/negative (Hepatotoxicity [3]): 1

Compound: CC1=C(/C=C/C(C)=C/C=C/C(C)=C\C(=O)O)C(C)(C)CCC1 [ISOTRETINOIN]
- DILI positive/negative (Hepatotoxicity [1]): 1
- DILI positive/negative (Hepatotoxicity [2]): 1

Compound: C=C1c2cccc(O)c2C(=O)C2=C(O)[C@]3(O)C(=O)C(C(N)=O)=C(O)[C@@H](N(C)C)[C@@H]3[C@@H](O)[C@H]12 [METHACYCLINE]
- DILI positive/negative (Hepatotoxicity [1]): 1

Compound: CC(=O)Oc1cc(C(C)C)c(OCCN(C)C)cc1C [MOXISYLYTE]
- DILI positive/negative (Hepatotoxicity [1]): 0
- DILI positive/negative (Hepatotoxicity [3]): 1

Compound: CS(=O)(=O)Nc1ccc([N+](=O)[O-])cc1Oc1ccccc1 [NIMESULIDE]
- DILI positive/negative (Hepatotoxicity [1]; Liver): 1
- DILI positive/negative (Hepatotoxicity [2]; Liver): 1
- DILI positive/negative (Hepatotoxicity [3]; Liver): 1

Compound: CN1Cc2c(N)cccc2C(c2ccccc2)C1 (configuration not stated) [NOMIFENSINE]
- DILI positive/negative (Hepatotoxicity [2]): 1
- DILI positive/negative (Hepatotoxicity [3]): 1

Compound: CO[C@@H]1[C@@H](OC(N)=O)[C@@H](O)[C@H](Oc2ccc3c(O)c(NC(=O)c4ccc(O)c(CC=C(C)C)c4)c(=O)oc3c2C)OC1(C)C [NOVOBIOCIN]
- DILI positive/negative (Hepatotoxicity [1]): 1
- DILI positive/negative (Hepatotoxicity [2]): 1

Compound: CC[N+](C)(CC)CCOC(=O)C(O)(c1ccccc1)C1CCCCC1 (configuration not stated) [OXYPHENONIUM]
- DILI positive/negative (Hepatotoxicity [1]): 0
- DILI positive/negative (Hepatotoxicity [2]): 0

Compound: C#CCN(C)Cc1ccccc1 [PARGYLINE]
- DILI positive/negative (Hepatotoxicity [1]): 0
- DILI positive/negative (Hepatotoxicity [2]): 0

Compound: C1CCC(C(CC2CCCCN2)C2CCCCC2)CC1 (configuration not stated) [PERHEXILINE]
- DILI positive/negative (Hepatotoxicity [2]): 1
- DILI positive/negative (Hepatotoxicity [3]): 1

Compound: C[C@H]1[C@H](c2ccccc2)OCCN1C [PHENDIMETRAZINE]
- DILI positive/negative (Hepatotoxicity [3]): 0

Compound: CC(COc1ccccc1)NN (configuration not stated) [PHENOXYPROPAZINE]
- DILI positive/negative (Hepatotoxicity [3]): 1

Compound: CCCCC1C(=O)N(c2ccccc2)N(c2ccccc2)C1=O [PHENYLBUTAZONE]
- DILI positive/negative (Hepatotoxicity [1]; Liver): 1
- DILI positive/negative (Hepatotoxicity [2]; Liver): 1

Compound: CNC(=O)Oc1ccc2c(c1)[C@]1(C)CCN(C)[C@@H]1N2C [PHYSOSTIGMINE]
- DILI positive/negative (Hepatotoxicity [1]): 0
- DILI positive/negative (Hepatotoxicity [2]): 0

Compound: COc1ccc(C(=O)NCc2cccnc2)cc1C(=O)NCc1cccnc1 [PICOTAMIDE]
- DILI positive/negative (Hepatotoxicity [1]): 0

Compound: CC(N/C(=N\C#N)Nc1ccncc1)C(C)(C)C (configuration not stated) [PINACIDIL ANHYDROUS]
- DILI positive/negative (Hepatotoxicity [1]): 0
- DILI positive/negative (Hepatotoxicity [2]): 0

Compound: NC(=O)C1CCN(CCCN2c3ccccc3Sc3ccc(Cl)cc32)CC1 [PIPAMAZINE]
- DILI positive/negative (Hepatotoxicity [3]): 1

Compound: CC(C(=O)O)c1ccc(N2CC=CC2)c(Cl)c1 (configuration not stated) [PIRPROFEN]
- DILI positive/negative (Hepatotoxicity [2]): 1
- DILI positive/negative (Hepatotoxicity [3]): 1

Compound: Cc1ncc(CO)c(CO)c1O [PYRIDOXINE]
- DILI positive/negative (Hepatotoxicity [1]; Liver): 0
- DILI positive/negative (Hepatotoxicity [2]; Liver): 0

Compound: CCN(CC)CCCC(C)Nc1c2ccc(Cl)cc2nc2ccc(OC)cc12 (configuration not stated) [QUINACRINE]
- DILI positive/negative (Hepatotoxicity [1]): 1

Compound: C=C[C@H]1C[N@@]2CC[C@H]1C[C@H]2[C@H](O)c1ccnc2ccc(OC)cc12 [QUININE]
- DILI positive/negative (Hepatotoxicity [1]): 1

Compound: NC(=O)NS(=O)(=O)c1ccc(N)cc1 [SULFACARBAMIDE]
- DILI positive/negative (Hepatotoxicity [3]): 1

Compound: Cc1nnc(NS(=O)(=O)c2ccc(N)cc2)s1 [SULFAMETHIZOLE]
- DILI positive/negative (Hepatotoxicity [1]): 1
- DILI positive/negative (Hepatotoxicity [2]): 1

Compound: Cc1cc(NS(=O)(=O)c2ccc(N)cc2)no1 [SULFAMETHOXAZOLE]
- DILI positive/negative (Hepatotoxicity [1]; Liver): 1
- DILI positive/negative (Hepatotoxicity [3]; Liver): 1

Compound: Nc1ccc(S(=O)(=O)Nc2ccnn2-c2ccccc2)cc1 [SULFAPHENAZOLE]
- DILI positive/negative (Hepatotoxicity [1]): 1

Compound: Nc1ccc(S(=O)(=O)Nc2nccs2)cc1 [SULFATHIAZOLE]
- DILI positive/negative (Hepatotoxicity [3]; Liver): 1

Compound: CCCCCCCCNC(C)C(O)c1ccc(SC(C)C)cc1 (configuration not stated) [SULOCTIDIL]
- DILI positive/negative (Hepatotoxicity [3]): 1

Compound: Cc1nc(C)c2c(n1)N(Cc1ccc(-c3ccccc3-c3nnn[nH]3)cc1)C(=O)CC2 [TASOSARTAN]
- DILI positive/negative (Hepatotoxicity [2]): 1
- DILI positive/negative (Hepatotoxicity [3]): 1

Compound: CC(C)(C)c1ccc(C(O)CCCN2CCC(C(O)(c3ccccc3)c3ccccc3)CC2)cc1 (configuration not stated) [TERFENADINE]
- DILI positive/negative (Hepatotoxicity [1]): 1
- DILI positive/negative (Hepatotoxicity [2]): 0

Compound: CCC1(c2ccccc2)C(=O)NC(=O)NC1=O.CCCCCOC(CN1C(=O)N(CC(COCCCC)OC(N)=O)C(=O)C(CC)(c2ccccc2)C1=O)OC(N)=O.CCCCOCC(CN1C(=O)NC(=O)C(CC)(c2ccccc2)C1=O)OC(N)=O (configuration not stated) [TETRABAMATE]
- DILI positive/negative (Hepatotoxicity [3]): 1

Compound: Cc1ncc(C[n+]2csc(CCO)c2C)c(N)n1 [THIAMINE ION]
- DILI positive/negative (Hepatotoxicity [1]; Liver): 0
- DILI positive/negative (Hepatotoxicity [2]; Liver): 0

Compound: Cc1cc(Br)c(O)c2ncccc12 [TILBROQUINOL]
- DILI positive/negative (Hepatotoxicity [3]): 1

Compound: COc1ccc2c(C(=S)N(C)CC(=O)O)cccc2c1C(F)(F)F [TOLRESTAT]
- DILI positive/negative (Hepatotoxicity [3]): 1

Compound: CC(=O)Oc1ccc(C2(c3ccc(OC(C)=O)cc3)C(=O)N(C(C)=O)c3ccccc32)cc1 [TRIACETYLDIPHENOLISATIN]
- DILI positive/negative (Hepatotoxicity [3]): 1

Compound: CCOC(Nc1ccc(C(=O)O)cc1)C(=O)c1ccc(-c2ccccc2)cc1 (configuration not stated) [XENAZOIC ACID]
- DILI positive/negative (Hepatotoxicity [3]): 1

Compound: CCOC(=O)CN[C@@H](C(=O)N1CC[C@H]1C(=O)NCc1ccc(/C(N)=N\O)cc1)C1CCCCC1 [XIMELAGATRAN]
- DILI positive/negative (Hepatotoxicity [3]): 1

Compound: CC(c1cc2ccccc2s1)N(O)C(N)=O (configuration not stated) [ZILEUTON]
- DILI positive/negative (Hepatotoxicity [1]): 1
- DILI positive/negative (Hepatotoxicity [2]): 1
- DILI positive/negative (Hepatotoxicity [3]): 1

Compound: CN(C)C/C=C(/c1ccc(Br)cc1)c1cccnc1 [ZIMELDINE]
- DILI positive/negative (Hepatotoxicity [3]): 1

Compound: COLISTIMETHATE
- DILI positive/negative (Hepatotoxicity [3]): 0
